According to patent publication US20240287078A1, “QUINAZOLINE DERIVATIVES USEFUL AS RAS INHIBITORS” (Redx Pharma PLC, priority 2021, published 2024):

Assays:
Type in all cases: biochemical
[1] = target: T1, KRAS WT (Homo sapiens, UniProt P01116); test: HTRF nucleotide exchange assay (NEA), KRAS WT; details: recombinant human KRAS WT aa1-188, 2 nM, 60 min compound incubation, EDA-GTP-DY647P1; for inhibition at 10 µM: 1 h
T1 construct: aa1-188 KRAS WT, HRAS WT, NRAS WT
Method: (§1) HTRF Nucleotide Exchange Assay Method
(§2) The capacity of compounds to bind KRAS G12D, other KRAS mutants and wildtype RAS isoforms was quantified using a HTRF nucleotide exchange assay. Recombinant human RAS protein (2 nM; aa1-188 KRAS WT, HRAS WT, NRAS WT, or KRAS containing the containing the G12D, G13D or Q61H amino acid substitutions, or 4 nM KRAS; aa1-188 containing the G12V, G12C, G12A or G12S amino acid substitution, an N-terminal 6×His-tag and leader sequence), and 2 nM Europium-labeled anti-6×His antibody were mixed in assay buffer (10 mM HEPES pH7.3, 150 mM NaCl, 5 mM MgCl2, 0.05% BSA, 0.0025% NP-40 and 100 mM KF) with various concentrations of compound in a 384-well plate and a volume of 5 uL. After a 60-minute incubation at room temperature, Sul of 200 nM EDA-GTP-DY647P1 (diluted in assay buffer) was added to the plate. Following 30-minute incubation at room temperature, time-resolved fluorescence was measured on a PerkinElmer Envision plate reader. DMSO (0.3%) and unlabeled GDP (1 μM) or equivalent tool compound were used to generate the Max and Min assay signals, respectively. Data was analysed using a four-parameter logistic model to calculate IC50 values, with at least two independent replicates were performed for each compound.

[2] = target: T2, KRAS G12D (Homo sapiens, UniProt P01116, G12D); test: HTRF nucleotide exchange assay (NEA), KRAS G12D; details: recombinant human KRAS aa1-188 G12D, 2 nM, 60 min compound incubation, EDA-GTP-DY647P1; for inhibition at 10 µM: 1 h
T2 construct: aa1-188 KRAS WT, HRAS WT, NRAS WT, or KRAS containing the containing the G12D, G13D or Q61H amino acid substitutions
T2 sequence (P01116 1-188 isoform P01116-2 G12D): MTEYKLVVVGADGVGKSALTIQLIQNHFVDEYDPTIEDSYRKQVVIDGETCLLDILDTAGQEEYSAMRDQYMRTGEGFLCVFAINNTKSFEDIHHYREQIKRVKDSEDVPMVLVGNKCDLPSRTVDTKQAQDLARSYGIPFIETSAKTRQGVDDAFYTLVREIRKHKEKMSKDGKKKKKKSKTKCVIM
Method: as §1, §2

[3] = target: T3, KRAS G13D (Homo sapiens, UniProt P01116, G13D); test: HTRF nucleotide exchange assay (NEA), KRAS G13D; details: recombinant human KRAS aa1-188 G13D, 2 nM, 60 min compound incubation, EDA-GTP-DY647P1; for inhibition at 10 µM: 1 h
T3 construct: aa1-188 KRAS WT, HRAS WT, NRAS WT, or KRAS containing the containing the G12D, G13D or Q61H amino acid substitutions
T3 sequence (P01116 1-188 isoform P01116-2 G13D): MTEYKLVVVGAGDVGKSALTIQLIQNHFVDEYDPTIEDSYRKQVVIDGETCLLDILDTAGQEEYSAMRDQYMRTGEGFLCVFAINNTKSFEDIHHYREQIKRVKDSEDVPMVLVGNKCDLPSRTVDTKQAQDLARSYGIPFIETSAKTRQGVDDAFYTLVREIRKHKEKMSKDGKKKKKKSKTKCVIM
Method: as §1
The capacity of compounds to bind KRAS G12D, other KRAS mutants and wildtype RAS isoforms was quantified using a HTRF nucleotide exchange assay. […] After a 60-minute incubation at room temperature, Sul of 200 nM EDA-GTP-DY647P1 (diluted in assay buffer) was added to the plate. Following 30-minute incubation at room temperature, time-resolved fluorescence was measured on a PerkinElmer Envision plate reader. DMSO (0.3%) and unlabeled GDP (1 μM) or equivalent tool compound were used to generate the Max and Min assay signals, respectively. Data was analysed using a four-parameter logistic model to calculate IC50 values, with at least two independent replicates were performed for each compound.

[4] = target: T4, KRAS G12C (Homo sapiens, UniProt P01116, G12C); test: HTRF nucleotide exchange assay (NEA), KRAS G12C; details: recombinant human KRAS aa1-188 G12C, 4 nM; 60 min compound incubation, EDA-GTP-DY647P1
T4 construct: 4 nM KRAS; aa1-188 containing the G12V, G12C, G12A or G12S amino acid substitution
T4 sequence (P01116 1-188 isoform P01116-2 G12C): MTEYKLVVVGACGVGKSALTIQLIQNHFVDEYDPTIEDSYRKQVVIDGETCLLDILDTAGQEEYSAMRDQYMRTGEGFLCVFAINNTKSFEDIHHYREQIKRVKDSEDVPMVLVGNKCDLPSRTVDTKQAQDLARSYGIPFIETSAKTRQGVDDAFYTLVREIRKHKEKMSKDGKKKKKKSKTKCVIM
Method: as §1, §2

[5] = target: T5, KRAS G12S (Homo sapiens, UniProt P01116, G12S); test: HTRF nucleotide exchange assay (NEA), KRAS G12S; details: 1 h; recombinant human KRAS aa1-188 G12S, 4 nM; 60 min compound incubation, EDA-GTP-DY647P1
T5 construct: 4 nM KRAS; aa1-188 containing the G12V, G12C, G12A or G12S amino acid substitution
T5 sequence (P01116 1-188 isoform P01116-2 G12S): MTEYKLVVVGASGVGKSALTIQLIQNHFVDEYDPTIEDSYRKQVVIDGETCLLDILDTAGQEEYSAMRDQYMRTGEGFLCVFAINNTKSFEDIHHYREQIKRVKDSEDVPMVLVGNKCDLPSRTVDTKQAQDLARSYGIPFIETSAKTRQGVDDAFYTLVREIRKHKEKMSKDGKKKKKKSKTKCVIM
Method: as §1, §2

T1 sequence (P01116 1-188 isoform P01116-2): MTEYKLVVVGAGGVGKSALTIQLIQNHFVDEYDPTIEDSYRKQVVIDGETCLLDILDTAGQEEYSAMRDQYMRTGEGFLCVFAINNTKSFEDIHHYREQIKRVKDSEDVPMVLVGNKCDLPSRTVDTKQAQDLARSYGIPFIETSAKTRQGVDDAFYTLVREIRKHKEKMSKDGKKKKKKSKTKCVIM

| inhibition at 10 µM [1] | inhibition at 10 µM [2] | Compound | other results |
| --- | --- | --- | --- |
| – | – | Cc1c(-c2cc(O)cc3ccccc23)ccc2c(N3CC4CCC(C3)N4)nc(OCC34CCCN3CCC4)nc12 [Example 1, 4-[4-(3,8-diazabicyclo[3.2.1]octan-3-yl)-2-(1,2,3,5,6,7-hexahydropyrrolizin-8-ylmethoxy)-8-methyl-quinazolin-7-yl]naphthalen-2-ol] | IC50 [1]: 100 to 10000 nM; IC50 [2]: < 10 nM; inhibition at 10 µM [3]: 10 to 49%; IC50 [4]: 100 to 10000 nM |
| – | – | Cc1c(-c2cc(O)cc3ccccc23)ccc2c(N3CCSCC3)nc(OCC34CCCN3CCC4)nc12 [Example 3, 4-[2-(1,2,3,5,6,7-hexahydropyrrolizin-8-ylmethoxy)-8-methyl-4-thiomorpholino-quinazolin-7-yl]naphthalen-2-ol] | IC50 [1]: 100 to 10000 nM; IC50 [2]: 100 to 10000 nM; IC50 [3]: 100 to 10000 nM; IC50 [4]: 100 to 10000 nM |
| 10 to 49% | 10 to 49% | Cc1c(-c2cc(O)cc3ccccc23)ccc2c(N3CCOCCC3=O)nc(OCC34CCCN3CCC4)nc12 [Example 4, 4-[2-(1,2,3,5,6,7-hexahydropyrrolizin-8-ylmethoxy)-7-(3-hydroxy-1-naphthyl)-8-methyl-quinazolin-4-yl]-1,4-oxazepan-5-one] | inhibition at 10 µM [3]: 10 to 49% |
| 10 to 49% | 10 to 49% | Cc1c(-c2cc(O)cc3ccccc23)ccc2c(N3CCCOCC3=O)nc(OCC34CCCN3CCC4)nc12 [Example 5, 4-[2-(1,2,3,5,6,7-hexahydropyrrolizin-8-ylmethoxy)-7-(3-hydroxy-1-naphthyl)-8-methyl-quinazolin-4-yl]-1,4-oxazepan-3-one] | inhibition at 10 µM [3]: 10 to 49% |
| 10 to 49% | 10 to 49% | Cc1c(-c2cc(O)cc3ccccc23)ccc2c(N3CCn4nccc4C3)nc(OCC34CCCN3CCC4)nc12 [Example 7] | inhibition at 10 µM [5]: 10 to 49% |
| 10 to 49% | 10 to 49% | Cc1c(-c2cc(O)cc3ccccc23)ccc2c(N3CCn4cncc4C3)nc(OCC34CCCN3CCC4)nc12 [Example 8, 4-[4-(6,8-dihydro-5H-imidazo[1,5-a]pyrazin-7-yl)-2-(1,2,3,5,6,7-hexahydropyrrolizin-8-ylmethoxy)-8-methyl-quinazolin-7-yl]naphthalen-2-ol] | inhibition at 10 µM [5]: 10 to 49% |
| 10 to 49% | 10 to 49% | Cc1c(-c2cc(O)cc3ccccc23)ccc2c(N3CCn4ccnc4C3)nc(OCC34CCCN3CCC4)nc12 [Example 9, 4-[4-(6,8-dihydro-5H-imidazo[1,2-a]pyrazin-7-yl)-2-(1,2,3,5,6,7-hexahydropyrrolizin-8-ylmethoxy)-8-methyl-quinazolin-7-yl]naphthalen-2-ol] | inhibition at 10 µM [5]: 10 to 49% |
| 10 to 49% | 10 to 49% | Cc1c(-c2cc(O)cc3ccccc23)ccc2c(N3CCc4[nH]ncc4C3)nc(OCC34CCCN3CCC4)nc12 [Example 10, 4-[2-(1,2,3,5,6,7-hexahydropyrrolizin-8-ylmethoxy)-8-methyl-4-(1,4,6,7-tetrahydropyrazolo[4,3-c]pyridin-5-yl)quinazolin-7-yl]naphthalen-2-ol] | – |
| 10 to 49% | 10 to 49% | Cc1c(-c2cc(O)cc3ccccc23)ccc2c(N3CCc4cn[nH]c4C3)nc(OCC34CCCN3CCC4)nc12 [Example 11, 4-[2-(1,2,3,5,6,7-hexahydropyrrolizin-8-ylmethoxy)-8-methyl-4-(1,4,5,7-tetrahydropyrazolo[3,4-c]pyridin-6-yl)quinazolin-7-yl]naphthalen-2-ol] | – |
| 10 to 49% | 10 to 49% | Cc1c(-c2ncnc3ccc(C#N)cc23)ccc2c(N3CCCOCC3)nc(OCC34CCCN3CCC4)nc12 [Example 12, 4-[2-(1,2,3,5,6,7-hexahydropyrrolizin-8-ylmethoxy)-8-methyl-4-(1,4-oxazepan-4-yl)quinazolin-7-yl]quinazoline-6-carbonitrile] | – |
| – | – | Cc1c(-c2cccc3sc(N)nc23)ccc2c(N3CCCOCC3)nc(OCC34CCCN3CCC4)nc12 [Example 13, 4-[2-(1,2,3,5,6,7-hexahydropyrrolizin-8-ylmethoxy)-8-methyl-4-(1,4-oxazepan-4yl)quinazolin-7-yl]-1,3-benzothiazol-2-amine] | IC50 [1]: 100 to 10000 nM; IC50 [2]: 100 to 10000 nM |
| 10 to 49% | 10 to 49% | Cc1nc(-c2ccc3c(N4CCCOCC4)nc(OCC45CCCN4CCC5)nc3c2C)c2ccccc2n1 [Example 14, 4-[2-(1,2,3,5,6,7-hexahydropyrrolizin-8-ylmethoxy)-8-methyl-7-(2-methylquinazolin-4-yl)quinazolin-4-yl]-1,4-oxazepane] | – |
| 10 to 49% | 10 to 49% | COc1ccc(C(F)(F)F)cc1-c1ccc2c(N3CCCOCC3)nc(OCC34CCCN3CCC4)nc2c1C [Example 15, 4-[2-(1,2,3,5,6,7-hexahydropyrrolizin-8-ylmethoxy)-7-[2-methoxy-5-(trifluoromethyl)phenyl]-8-methyl-quinazolin-4-yl]-1,4-oxazepane] | – |
| – | 10 to 49% | COc1ccc(Cl)cc1-c1ccc2c(N3CCCOCC3)nc(OCC34CCCN3CCC4)nc2c1C [Example 16, 4-[7-(5-chloro-2-methoxy-phenyl)-2-(1,2,3,5,6,7-hexahydropyrrolizin-8-ylmethoxy)-8-methyl-quinazolin-4-yl]-1,4-oxazepane] | IC50 [1]: 100 to 10000 nM |
| 10 to 49% | 10 to 49% | Cc1c(-c2c[nH]nc2C(F)(F)F)ccc2c(N3CCCOCC3)nc(OCC34CCCN3CCC4)nc12 [Example 17, 4-[2-(1,2,3,5,6,7-hexahydropyrrolizin-8-ylmethoxy)-8-methyl-7-[3-(trifluoromethyl)-1H-pyrazol-4-yl]quinazolin-4-yl]-1,4-oxazepane] | – |
| 10 to 49% | 10 to 49% | Cc1ccc2[nH]ncc2c1-c1ccc2c(N3CCCOCC3)nc(OCC34CCCN3CCC4)nc2c1C [Example 18, 4-[2-(1,2,3,5,6,7-hexahydropyrrolizin-8-ylmethoxy)-8-methyl-7-(5-methyl-1H-indazol-4-yl)quinazolin-4-yl]-1,4-oxazepane] | – |
| 10 to 49% | 10 to 49% | Cc1c(-c2cccc3[nH]ncc23)ccc2c(N3CCCOCC3)nc(OCC34CCCN3CCC4)nc12 [Example 19, 4-[2-(1,2,3,5,6,7-hexahydropyrrolizin-8-ylmethoxy)-7-(1H-indazol-4-yl)-8-methyl-quinazolin-4-yl]-1,4-oxazepane] | – |
| 10 to 49% | 10 to 49% | Cc1c(-c2n[nH]c3ccccc23)ccc2c(N3CCCOCC3)nc(OCC34CCCN3CCC4)nc12 [Example 20, 4-[2-(1,2,3,5,6,7-hexahydropyrrolizin-8-ylmethoxy)-7-(1H-indazol-3-yl)-8-methyl-quinazolin-4-yl]-1,4-oxazepane] | – |
| 10 to 49% | 10 to 49% | Cc1c(-c2cccc3cnn(C)c23)ccc2c(N3CCCOCC3)nc(OCC34CCCN3CCC4)nc12 [Example 21, 4-[2-(1,2,3,5,6,7-hexahydropyrrolizin-8-ylmethoxy)-8-methyl-7-(1-methylindazol-7-yl)quinazolin-4-yl]-1,4-oxazepane] | – |
| 10 to 49% | 10 to 49% | Cc1c(-c2nc(N)cc3ccccc23)ccc2c(N3CCCOCC3)nc(OCC34CCCN3CCC4)nc12 [Example 23, 1-[2-(1,2,3,5,6,7-hexahydropyrrolizin-8-ylmethoxy)-8-methyl-4-(1,4-oxazepan-4-yl)quinazolin-7-yl]isoquinolin-3-amine] | – |
